According to article PMC6679423 (International Journal of Molecular Sciences, 2019):

Assays:
Format in all cases: in vitro ADME
[1] = molecular target: T1, human recombinant CYP3A4 (Homo sapiens, UniProt P08684); assay: Vandetanib oxidation by human recombinant CYP3A4 (Supersomes)
T1 construct: purchased Gentest Corp; host or cells: insect cells (baculovirus)
Method: (§1) The purity of all chemicals met the standards of American Chemical Society, unless noted otherwise. […] Animals were placed in cages in temperature- and humidity-controlled rooms, acclimatized for five days and maintained at 22 °C with a 12 h light/dark period. Standardized diet and water were provided ad libitum. Rats, mice and rabbits used to prepare microsomal fraction from untreated animals were sacrificed by cervical dislocation, livers snap-frozen in liquid nitrogen and stored at −80 °C until further processing (see below). For controls, livers of the animals were removed immediately after sacrifice, divided into small pieces (~1 g), snap-frozen in liquid nitrogen, and stored at −80 °C until isolation of microsomal fractions. Pooled microsomes were used for all in vitro experiments in the present study and prepared from 10 livers/group for all animal species following established protocols. Microsomal fractions were stored at −80 °C until analysis. Protein concentrations in the microsomal fractions were assessed using the bicinchoninic acid protein assay with bovine serum albumin as a standard. […] Microsomes from livers of twelve human donors were obtained from Gentest Corp. (Woburn, MA, USA) (cat. no. HG43–1, HG103, HG74, HG93, HG24, HG27, HG23, HG32, HK31, HK34, HG03, and HG42). […]

[2] = molecular target: T2, human recombinant CYP1A1 (Homo sapiens, UniProt P04798); assay: Vandetanib oxidation by human recombinant CYP1A1 (Supersomes)
T2 construct: purchased Gentest Corp; host or cells: insect cells (baculovirus)
T2 sequence (P04798 1-512): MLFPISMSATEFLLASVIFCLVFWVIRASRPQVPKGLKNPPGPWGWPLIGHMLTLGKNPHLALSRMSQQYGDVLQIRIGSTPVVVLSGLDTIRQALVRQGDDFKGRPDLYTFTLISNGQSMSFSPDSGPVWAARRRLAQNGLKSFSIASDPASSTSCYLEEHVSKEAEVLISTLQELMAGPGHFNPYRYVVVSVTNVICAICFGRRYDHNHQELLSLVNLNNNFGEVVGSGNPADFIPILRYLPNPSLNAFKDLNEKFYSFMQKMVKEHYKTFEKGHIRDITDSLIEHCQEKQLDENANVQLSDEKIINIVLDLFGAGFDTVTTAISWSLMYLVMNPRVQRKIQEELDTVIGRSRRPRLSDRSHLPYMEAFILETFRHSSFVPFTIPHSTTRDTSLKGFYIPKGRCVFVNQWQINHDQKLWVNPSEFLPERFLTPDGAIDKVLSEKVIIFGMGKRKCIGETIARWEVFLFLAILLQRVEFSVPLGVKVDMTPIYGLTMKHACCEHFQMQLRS
Method: Vandetanib was from LC Laboratories (Woburn, MA, USA). Ketoconazole, NADPH, methimazol and other chemicals were all purchased from Sigma-Aldrich (St. Louis, MO, USA). The purity of all chemicals met the standards of American Chemical Society, unless noted otherwise. All animal experiments were conducted in accordance with the Regulations for the Care and Use of Laboratory Animals (311/1997, Ministry of Agriculture, Czech Republic), which follows the Declaration of Helsinki. Male Wistar rats (~125–150 g; AnLab, Czech Republic), male C57BL/6 mice ([…]; CXR Bioscience Ltd., Dundee, UK), and male New Zealand rabbits (2.5–3 kg; AnLab, Czech Republic) were employed as animal models. Animals were placed in cages in temperature- and humidity-controlled rooms, acclimatized for five days and maintained at 22 °C with a 12 h light/dark period. Standardized diet and water were provided ad libitum. Rats, mice and rabbits used to prepare microsomal fraction from untreated animals were sacrificed by cervical dislocation, livers snap-frozen in liquid nitrogen and stored at −80 °C until further processing (see below). For controls, livers of the animals were removed immediately after sacrifice, divided into small pieces (~1 g), snap-frozen in liquid nitrogen, and stored at −80 °C until isolation of microsomal fractions. Pooled microsomes were used for all in vitro experiments in the present study and prepared from 10 livers/group for all animal species following established protocols. Microsomal fractions were stored at −80 °C until analysis. Protein concentrations in the microsomal fractions were assessed using the bicinchoninic acid protein assay with bovine serum albumin as a standard. Male human hepatic microsomes (pooled sample) (sample LOT: 3043885) were from Gentest Corp. (Woburn, MA, USA). Microsomes from livers of twelve human donors were obtained from Gentest Corp. (Woburn, MA, USA) (cat. no. HG43–1, HG103, HG74, HG93, HG24, HG27, HG23, HG32, HK31, HK34, HG03, and HG42). Each human microsomal sample has been characterized for CYP, FMO and protein contents and specific CYP activities by Gentest Corp. We reanalyzed each microsomal preparation for specific CYP, NADPH:CYP reductase (POR) and FMO activities by assays described in the protocols of Gentest Corp. Our data were similar to those reported by Gentest Corp. in their specification sheets. […]

[3] = molecular target: T3, human recombinant CYP2D6 (Homo sapiens, UniProt P10635); assay: Vandetanib oxidation by human recombinant CYP2D6 (Supersomes)
T3 construct: purchased Gentest Corp; host or cells: insect cells (baculovirus)
T3 sequence (P10635 whole entry): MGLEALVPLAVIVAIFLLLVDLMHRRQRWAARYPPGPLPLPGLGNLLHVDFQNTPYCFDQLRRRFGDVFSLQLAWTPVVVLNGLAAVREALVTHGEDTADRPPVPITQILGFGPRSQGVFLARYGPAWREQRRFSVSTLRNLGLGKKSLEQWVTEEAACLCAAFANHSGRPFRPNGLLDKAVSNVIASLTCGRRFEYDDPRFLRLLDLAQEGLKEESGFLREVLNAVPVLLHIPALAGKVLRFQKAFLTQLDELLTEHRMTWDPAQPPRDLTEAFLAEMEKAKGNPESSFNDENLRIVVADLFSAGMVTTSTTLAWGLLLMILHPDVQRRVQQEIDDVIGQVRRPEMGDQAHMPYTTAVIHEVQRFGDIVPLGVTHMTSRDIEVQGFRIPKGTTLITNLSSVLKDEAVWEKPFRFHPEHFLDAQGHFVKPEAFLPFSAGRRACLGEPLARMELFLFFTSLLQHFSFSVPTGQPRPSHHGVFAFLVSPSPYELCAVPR
Method: as §1

[4] = without consideration of cytochrome b5

T1 sequence (P08684 2-503 limits assumed): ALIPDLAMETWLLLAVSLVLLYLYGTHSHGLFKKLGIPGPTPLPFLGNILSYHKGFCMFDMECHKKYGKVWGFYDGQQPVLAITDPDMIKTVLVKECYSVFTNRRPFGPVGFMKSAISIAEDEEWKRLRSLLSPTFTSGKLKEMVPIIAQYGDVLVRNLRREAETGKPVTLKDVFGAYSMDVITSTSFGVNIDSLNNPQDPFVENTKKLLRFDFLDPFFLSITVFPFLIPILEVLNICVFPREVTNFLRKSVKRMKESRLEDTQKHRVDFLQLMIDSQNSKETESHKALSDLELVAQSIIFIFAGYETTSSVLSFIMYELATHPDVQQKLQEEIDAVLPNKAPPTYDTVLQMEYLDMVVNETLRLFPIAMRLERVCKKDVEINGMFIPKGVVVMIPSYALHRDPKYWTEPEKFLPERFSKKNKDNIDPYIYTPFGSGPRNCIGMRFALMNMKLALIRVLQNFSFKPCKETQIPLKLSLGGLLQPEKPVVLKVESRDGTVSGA

- contribution of CYP3A4 to N-desmethylvandetanib formation in human liver ([1]; with cytochrome b5): ~ 99.6%
- contribution of CYP3A4 to N-desmethylvandetanib formation in human liver [1, 4]: ~ 97.7%
- effect of cytochrome b5 on N-desmethylvandetanib formation ([2]; CYP1A1 with vs without cytochrome b5): essentially no such effect
- contribution of CYP1A1 to N-desmethylvandetanib formation in human liver [2, 4]: < 0.3%
- effect of cytochrome b5 on N-desmethylvandetanib formation ([3]; CYP2D6 with vs without cytochrome b5): essentially no such effect
- contribution of CYP2D6 to N-desmethylvandetanib formation in human liver [3, 4]: ~ 1.7%
SMILES: COc1cc2c(Nc3ccc(Br)cc3F)ncnc2cc1OCC1CCNCC1 [N-desmethylvandetanib]
